Earlier results, collected in patent publication US20200209238A1, “OPTIMIZING DIAGNOSTICS FOR GALACTOFURANOSE CONTAINING ANTIGENS” (The Johns Hopkins University, priority 2017, published 2020).

Target: T1, hINTL-1 (Homo sapiens, UniProt Q8WWA0)
T1 construct: from tissue; host or cells: human urine
T1 sequence (Q8WWA0 19-298): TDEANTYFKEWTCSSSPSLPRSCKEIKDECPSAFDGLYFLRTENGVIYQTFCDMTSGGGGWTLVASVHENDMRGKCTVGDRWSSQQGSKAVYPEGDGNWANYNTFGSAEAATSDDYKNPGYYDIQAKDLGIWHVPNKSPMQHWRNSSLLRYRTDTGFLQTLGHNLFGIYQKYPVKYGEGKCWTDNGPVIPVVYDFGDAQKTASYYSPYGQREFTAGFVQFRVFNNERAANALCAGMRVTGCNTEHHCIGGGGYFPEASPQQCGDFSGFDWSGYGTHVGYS

binding to hIntL-1: does not bind
Compound: CC(=O)N[C@H]1[C@H]([C@H](O)[C@H](O)CO)OC(O)(C(=O)O)C[C@@H]1O (stereo partly shown) [N-Acetylneuraminic acid (Neu5Ac), N-Acetylneuraminic acid]
